Measurements reported in article PMC10442743 (Dalton Transactions (Cambridge, England : 2003), 2023).
Read-outs that look alike come from different tables or passages of the source.

Tests used:
[1] = Molar conductivity in acetonitrile; type: physicochemical; details: 1 mM in acetonitrile, 25 °C
Method: The molar conductivity (ΛM, reported as S·cm2·mol–1) of solutions of 11CA in acetonitrile (1 mM) were measured in a Radiometer Copenhagen CDM92 equipped with a conductivity cell CDC641T glass platinum electrode at room temperature (25 °C). The conductivity of the pure solvent was used as standard controls.
Table S3. Solubility in water at 25 °C, n-octanol/water partition coefficient and molar conductivity of the 11CA. * below limit of detection = 5 ppt.

MCF-7 = assay: MTT cytotoxicity assay, MCF-7 cells; type: cell-based, human; details: MTT
Method: The cytotoxicity of 1–11CA was assessed against human breast cancer MCF-7 and MDA-MB-231 cells, and non-tumorigenic adherent mouse fibroblast connective tissue L929 cells using the MTT assay after 24 and 72 h (Tables S5 ^† and Table 1, respectively).
Then, necessary dilutions were made using the supplement DMEM, to prepare the range of tested concentrations. Since DMSO was used to solubilize the compounds, a supplemented DMEM + DMSO (at the same percentage as in the sequential dilutions) was considered as a control in the 3-[4,5-dimetylthiazole-2-yl]-2,5-diphenyltetrazolium bromide (MTT) assay.
L929, MCF-7, and MDA-MB-231 cell lines were cultured in DMEM supplemented with 10% (v/v) FBS and 1% (v/v) of penicillin–streptomycin. The cells were incubated in a humidified chamber at 37 °C under saturated air with a 5% CO2 atmosphere. Cells were passed at 80%–90% of confluency with 0.25% (w/v) trypsin and the cell culture media was changed every 2–3 days.
The compounds were tested on two breast cancer cell lines (MCF-7 and MDA-MB-231) and L929 fibroblasts, used as a reference for the safety evaluation according to ISO 10993-1:2009 “Biological evaluation of medical devices”. Cells were seeded on sterile 96-well plates at 50 000 cells per well (L929) and 20 000 cells per well (MCF-7 and MDA-MB-231) in supplemented DMEM medium (100 μL) for 24 h. The culture medium was removed and new media containing different concentrations of the compounds (0–1000 μM) was added to the wells (100 μL). Control cells were incubated under the same conditions in the absence of a compound. Cells were incubated for 24 and 72 h under the same conditions described above. Then, the medium was removed, and the cells were incubated with 3-(4,5-dimethylthiazol-2-yl)-2,5-diphenyltetrazolium bromide (MTT; 0.5 mg mL^−1) for 3 h. After this time, the medium was removed, and formazan crystals were solubilized with DMSO (100 μL per well). The absorbance in each well was read on a SynergyTM HT Multimode microplate reader (BioTek Instruments; Winooski, VT, USA) at 570 and 630 nm (for background correction), and the cell viability was calculated according to the following equation (eqn (1)):1 [drawing 3] where OD570(sample) and OD630(sample) are the optical densities of the solutions containing the compounds and OD570(control) and OD630(control) are controls without compound.
Each apoptosis value determination represents the mean ± standard deviation of 2 independent assays. The IC50 values were obtained using GraphPad Prism software and ANOVA (analysis of variance) was performed to determine the statistical difference between the IC50 values of different cell lines.

[2] = system: 6-mer dsDNA 5′–3′ (AGGCAG); details: 3 : 1 ratio, 37 °C, 24 h
Method: (§1) Tandem mass spectrometry was used to investigate the binding mode interaction of 11Cl with single- (ss) and double-strand (ds) DNA oligomers.[77,78]
(§2) 11Cl was incubated with 14-mer ssDNA 5′–3′ ([…]) and 6-mer dsDNA 5′–3′ (AGGCAG) in a 3 : 1 ratio at 37 °C in MilliQ water. After 24 h the solution was centrifuged with an Amicon® Ultra 0.5 mL centrifugal filter 3 kDa MWCO to remove the unreacted metal complex and excess salts.

[3] = system: 14-mer ssDNA 5′–3′ (ATACATGGTACATA); details: 3 : 1 ratio, 37 °C, 24 h
Method: as §1, §2

Cc1ccccc1.[Cl-].[Cl][Ru+]([PH](c1ccccc1)(c1ccccc1)c1ccccc1)[PH](c1ccccc1)(c1ccccc1)c1ccccc1 [Compound 11Cl, [Ru(η^6-toluene)(PPh3)2Cl]Cl]
Conductivity (molar conductivity) [1]: 128 S·cm2/mol
IC50 (MCF-7; 24 h exposure, read-out: IC50 (µM) (average ± standard deviation) 24 h MCF-7): 4 ± 0.3 µM
IC50 (MCF-7; 72 h exposure, read-out: IC50 (μM) (average ± standard deviation) 72 h MCF-7): 0.061 ± 0.003 µM
identified dsDNA ions containing ruthenium [2]: 23%
identified ssDNA ions containing ruthenium [3]: 43%
